# Laboratory results from patent publication US20080009418A1, “Selective Inhibitors” (Alchemia LTD., priority 2004, published 2008).
# Columns and labels:
# [1] = biological target: T1, Human κ-Opioid (KOP) (Homo sapiens, UniProt P41145); test: Radioligand binding, human κ-opioid (KOP) membranes, filtration, [3H]-Diprenorphine; details: compound at 10 μM; [3H]-Diprenorphine, human KOP membranes
# T1 construct: purchased Perkin Elmer Biosignal
# Procedure, shortened: (§1)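 Membranes from cloned human receptors were incubated with compound and radioligand for 1 hour at room temperature. Bound ligand was collected on 0.3% PEI-soaked filters, washed with cold 50 mM Tris-HCl pH 7.4, and counted by scintillation. Percent inhibition was computed against DMSO totals and reference-ligand nonspecific wells.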
# [2] = biological target: T2, Human δ-opioid (DOP) (Homo sapiens, UniProt P41143); test: Radioligand binding, human δ-opioid (DOP) membranes, FlashPlate, [3H]-Bremazocine; details: compound at 10 μM; [3H]-Bremazocine, human DOP membranes
# T2 construct: purchased Perkin Elmer Biosignal
# T2 sequence (P41143 whole entry): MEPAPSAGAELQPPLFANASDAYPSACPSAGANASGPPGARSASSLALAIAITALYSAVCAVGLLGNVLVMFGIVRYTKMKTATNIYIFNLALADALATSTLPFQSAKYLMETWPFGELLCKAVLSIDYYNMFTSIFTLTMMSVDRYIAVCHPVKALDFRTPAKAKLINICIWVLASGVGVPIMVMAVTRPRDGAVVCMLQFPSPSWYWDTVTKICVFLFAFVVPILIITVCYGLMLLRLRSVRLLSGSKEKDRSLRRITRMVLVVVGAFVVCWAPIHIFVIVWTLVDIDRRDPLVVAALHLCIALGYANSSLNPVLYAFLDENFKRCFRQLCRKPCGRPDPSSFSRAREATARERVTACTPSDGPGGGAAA
# Procedure, shortened: (§2)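 Cloned human receptor membranes were coated onto FlashPlate wells and incubated with radioligand and compound (added from a 0.5 mM DMSO daughter plate) for 1 hour at room temperature in the dark. Scintillation counting gave percent inhibition, with DMSO defining total and reference ligand defining non-specific binding.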
# [3] = biological target: T3, Human melanin-concentrating hormone (MCH1) (Homo sapiens, UniProt Q99705); test: Radioligand binding, human melanin-concentrating hormone MCH1 membranes, FlashPlate, [125I]-S36057; details: compound at 10 μM, [125I]-S36057, human MCH1 membranes
# T3 construct: purchased Perkin Elmer Biosignal
# T3 sequence (Q99705 whole entry): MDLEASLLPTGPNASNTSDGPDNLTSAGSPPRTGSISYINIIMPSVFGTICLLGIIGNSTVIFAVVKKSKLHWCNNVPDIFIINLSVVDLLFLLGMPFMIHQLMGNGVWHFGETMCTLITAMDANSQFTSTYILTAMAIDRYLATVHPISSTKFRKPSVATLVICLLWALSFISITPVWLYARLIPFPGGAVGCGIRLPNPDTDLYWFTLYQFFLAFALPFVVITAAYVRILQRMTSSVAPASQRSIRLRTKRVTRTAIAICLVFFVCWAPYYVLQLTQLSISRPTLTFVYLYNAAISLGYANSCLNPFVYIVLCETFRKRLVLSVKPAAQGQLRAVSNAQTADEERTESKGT
# Procedure, shortened: as §2
# [4] = biological target: T4, Human Melanocortin (MC4) (Homo sapiens, UniProt P32245); test: Radioligand binding, human melanocortin MC4 membranes, FlashPlate, [125I]-NDP-αMSH; details: compound at 10 μM, [125I]-NDP-αMSH, human MC4 membranes
# T4 construct: purchased Perkin Elmer Biosignal
# T4 sequence (P32245 whole entry): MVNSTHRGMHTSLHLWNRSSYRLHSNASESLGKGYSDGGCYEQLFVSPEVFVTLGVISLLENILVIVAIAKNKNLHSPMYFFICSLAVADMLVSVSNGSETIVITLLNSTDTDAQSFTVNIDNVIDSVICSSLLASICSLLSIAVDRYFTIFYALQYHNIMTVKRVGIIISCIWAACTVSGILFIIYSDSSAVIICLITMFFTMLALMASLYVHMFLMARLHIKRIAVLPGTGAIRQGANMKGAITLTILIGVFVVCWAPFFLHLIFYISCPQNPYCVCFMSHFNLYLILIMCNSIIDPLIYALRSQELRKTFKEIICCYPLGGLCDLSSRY
# Procedure, shortened: as §2
# [5] = biological target: T5, Human melanocortin (MC5) (Homo sapiens, UniProt P33032); test: Radioligand binding, human melanocortin MC5 membranes, FlashPlate, [125I]-NDP-αMSH; details: compound at 10 μM, [125I]-NDP-αMSH, human MC5 membranes
# T5 construct: purchased Perkin Elmer Biosignal
# T5 sequence (P33032 whole entry): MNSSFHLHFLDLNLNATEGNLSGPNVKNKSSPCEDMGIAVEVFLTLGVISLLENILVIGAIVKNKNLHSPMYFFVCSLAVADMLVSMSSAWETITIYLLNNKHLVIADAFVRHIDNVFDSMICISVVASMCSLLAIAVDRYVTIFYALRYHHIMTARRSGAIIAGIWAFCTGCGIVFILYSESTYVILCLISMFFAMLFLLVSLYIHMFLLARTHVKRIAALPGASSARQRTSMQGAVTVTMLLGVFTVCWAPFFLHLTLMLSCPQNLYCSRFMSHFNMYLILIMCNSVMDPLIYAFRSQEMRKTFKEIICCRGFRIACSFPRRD
# Procedure, shortened: as §2
# [6] = biological target: T6, Human μ-opioid (MOP) (Homo sapiens, UniProt P35372); test: Radioligand binding, human μ-opioid (MOP) membranes, FlashPlate, [3H]-Naloxone; details: compound at 10 μM; [3H]-Naloxone, human MOP membranes
# T6 construct: purchased Perkin Elmer Biosignal
# T6 sequence (P35372 whole entry): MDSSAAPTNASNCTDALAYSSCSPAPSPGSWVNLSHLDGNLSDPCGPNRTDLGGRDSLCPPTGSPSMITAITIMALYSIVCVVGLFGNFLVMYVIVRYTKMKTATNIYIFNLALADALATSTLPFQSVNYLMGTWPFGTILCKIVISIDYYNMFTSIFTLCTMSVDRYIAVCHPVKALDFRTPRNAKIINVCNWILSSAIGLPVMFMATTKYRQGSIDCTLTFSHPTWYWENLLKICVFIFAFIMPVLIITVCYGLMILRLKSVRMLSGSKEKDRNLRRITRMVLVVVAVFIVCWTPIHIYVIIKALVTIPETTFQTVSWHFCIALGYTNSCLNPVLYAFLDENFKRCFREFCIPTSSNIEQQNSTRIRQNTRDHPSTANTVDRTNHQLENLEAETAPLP
# Procedure, shortened: as §2
# [7] = biological target: T7, Human neuropeptide Y (NPY-Y1) (Homo sapiens, UniProt P25929); test: Radioligand binding, human neuropeptide Y NPY-Y1 membranes, FlashPlate, [125I]-PYY; details: compound at 10 μM; [125I]-PYY, human NPY-Y1 membranes
# T7 construct: purchased Perkin Elmer Biosignal
# T7 sequence (P25929 1-384): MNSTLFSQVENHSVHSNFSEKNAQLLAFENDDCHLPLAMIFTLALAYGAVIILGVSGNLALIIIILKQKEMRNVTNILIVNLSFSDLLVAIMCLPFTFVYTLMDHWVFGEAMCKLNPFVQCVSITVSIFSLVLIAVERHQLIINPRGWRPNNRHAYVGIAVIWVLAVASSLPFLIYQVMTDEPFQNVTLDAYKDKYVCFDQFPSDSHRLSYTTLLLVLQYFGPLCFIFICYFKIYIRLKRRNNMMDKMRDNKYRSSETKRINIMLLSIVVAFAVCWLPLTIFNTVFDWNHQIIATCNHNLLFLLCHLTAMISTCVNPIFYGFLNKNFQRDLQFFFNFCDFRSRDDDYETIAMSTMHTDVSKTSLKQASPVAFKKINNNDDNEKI
# Procedure, shortened: as §2
# [8] = biological target: T8, Human neurokinin (NK1) (Homo sapiens, UniProt P25103); test: Radioligand binding, human neurokinin NK1 membranes, filtration, [125I]-Substance P; details: compound at 10 μM; [125I]-Substance P, human NK1 membranes
# T8 construct: purchased Perkin Elmer Biosignal
# T8 sequence (P25103 whole entry): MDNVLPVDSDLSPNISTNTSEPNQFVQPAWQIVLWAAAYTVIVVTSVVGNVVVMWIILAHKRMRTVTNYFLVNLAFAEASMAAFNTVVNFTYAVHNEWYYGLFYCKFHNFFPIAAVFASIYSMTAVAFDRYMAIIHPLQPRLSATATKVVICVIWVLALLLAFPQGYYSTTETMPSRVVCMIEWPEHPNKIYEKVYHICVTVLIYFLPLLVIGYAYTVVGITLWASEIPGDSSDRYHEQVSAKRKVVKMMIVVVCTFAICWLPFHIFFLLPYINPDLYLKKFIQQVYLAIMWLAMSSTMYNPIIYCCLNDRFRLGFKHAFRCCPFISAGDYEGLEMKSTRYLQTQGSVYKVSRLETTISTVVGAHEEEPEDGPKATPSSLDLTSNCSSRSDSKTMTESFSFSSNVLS
# Procedure, shortened: as §1
# [9] = biological target: T9, Human opioid (ORL1) (Homo sapiens, UniProt P41146); test: Radioligand binding, human opioid ORL1 membranes, FlashPlate, [125I]-Nociceptin; details: compound at 10 μM; [125I]-Nociceptin, human ORL1 membranes
# T9 construct: purchased Perkin Elmer Biosignal
# T9 sequence (P41146 whole entry): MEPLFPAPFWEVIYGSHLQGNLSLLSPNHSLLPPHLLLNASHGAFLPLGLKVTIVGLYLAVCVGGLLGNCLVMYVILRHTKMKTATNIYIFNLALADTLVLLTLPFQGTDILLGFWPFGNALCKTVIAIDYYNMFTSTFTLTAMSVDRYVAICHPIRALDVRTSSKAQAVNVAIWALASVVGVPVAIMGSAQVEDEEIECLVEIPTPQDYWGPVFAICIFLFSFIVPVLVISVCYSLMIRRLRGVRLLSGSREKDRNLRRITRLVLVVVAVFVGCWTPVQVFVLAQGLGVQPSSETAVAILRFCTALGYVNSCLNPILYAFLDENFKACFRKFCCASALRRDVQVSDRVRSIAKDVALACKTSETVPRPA
# Procedure, shortened: as §2
# [10] = biological target: T10, Human Melanocortin (MC3) (Homo sapiens, UniProt P41968); test: Radioligand binding, human melanocortin MC3 membranes, FlashPlate, [125I]-NDP-αMSH; details: compound at 10 μM; [125I]-NDP-αMSH, human MC3 membranes
# T10 construct: purchased Perkin Elmer Biosignal
# T10 sequence (P41968 whole entry): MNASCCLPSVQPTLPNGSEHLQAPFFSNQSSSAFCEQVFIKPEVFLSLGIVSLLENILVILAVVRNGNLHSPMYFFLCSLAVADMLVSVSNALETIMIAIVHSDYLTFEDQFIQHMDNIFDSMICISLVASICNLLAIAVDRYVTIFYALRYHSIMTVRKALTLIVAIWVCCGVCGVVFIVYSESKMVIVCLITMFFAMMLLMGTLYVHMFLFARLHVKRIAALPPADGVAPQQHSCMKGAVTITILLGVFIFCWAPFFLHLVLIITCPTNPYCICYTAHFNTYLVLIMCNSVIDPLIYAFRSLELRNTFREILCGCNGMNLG
# Procedure, shortened: as §2
# [11] = biological target: T11, Mouse urotensin (mUR2) (Mus musculus, UniProt Q8VIH9); test: Radioligand binding, mouse urotensin mUR2 membranes, FlashPlate, [125I]-Urotensin II; details: compound at 10 μM; [125I]-Urotensin II, mouse mUR2 membranes
# T11 construct: purchased Perkin Elmer Biosignal
# T11 sequence (Q8VIH9 1-385): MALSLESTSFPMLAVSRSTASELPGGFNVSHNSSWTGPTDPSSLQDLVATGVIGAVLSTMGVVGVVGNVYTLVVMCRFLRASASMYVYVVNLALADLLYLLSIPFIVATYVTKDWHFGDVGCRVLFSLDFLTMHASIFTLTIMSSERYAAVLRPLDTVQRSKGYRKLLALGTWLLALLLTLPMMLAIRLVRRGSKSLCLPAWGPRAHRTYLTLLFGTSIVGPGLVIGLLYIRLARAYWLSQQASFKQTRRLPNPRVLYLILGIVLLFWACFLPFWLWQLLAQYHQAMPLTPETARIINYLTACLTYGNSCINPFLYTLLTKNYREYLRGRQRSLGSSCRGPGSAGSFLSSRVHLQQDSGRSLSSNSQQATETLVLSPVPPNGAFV
# Procedure, shortened: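 Cloned mouse urotensin (mUR2) receptor membranes from Perkin Elmer Biosignal were immobilized in FlashPlate microplates using a proprietary coating. Each well got 19.5 μl buffer, then 0.5 μl of DMSO, reference ligand, or compound. Adding 5 μl of [125I]-Urotensin II, diluted to 5× final concentration in binding buffer, started binding. Plates were sealed with TopSeal-A and incubated 1 hour at room temperature in the dark. Wells were counted for 30 seconds each on a TopCount after a 60-second delay, and percentage inhibition was calculated.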
# T1 sequence (P41145 whole entry): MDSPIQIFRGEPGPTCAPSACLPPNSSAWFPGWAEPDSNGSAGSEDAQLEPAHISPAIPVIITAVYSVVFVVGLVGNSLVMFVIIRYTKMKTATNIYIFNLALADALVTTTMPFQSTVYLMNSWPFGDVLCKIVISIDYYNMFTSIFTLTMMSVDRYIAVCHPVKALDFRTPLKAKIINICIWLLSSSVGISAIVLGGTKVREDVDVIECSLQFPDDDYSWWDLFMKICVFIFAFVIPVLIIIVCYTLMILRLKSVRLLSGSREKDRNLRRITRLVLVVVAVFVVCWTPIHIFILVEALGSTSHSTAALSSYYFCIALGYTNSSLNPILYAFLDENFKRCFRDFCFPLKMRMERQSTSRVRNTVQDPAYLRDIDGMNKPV
SMILES,A2: inhibition of radioligand binding [1],A1: inhibition of radioligand binding [2],A6: inhibition of radioligand binding [3],A4: inhibition of radioligand binding [4],A5: inhibition of radioligand binding [5],A7: inhibition of radioligand binding [6],A9: inhibition of radioligand binding [7],A8: inhibition of radioligand binding [8],A10: inhibition of radioligand binding [9],A3: inhibition of radioligand binding [10],A11: inhibition of radioligand binding [11],A6: inhibition of radioligand binding ([3]; 10 µM),A4: inhibition of radioligand binding ([4]; 10 µM),A5: inhibition of radioligand binding ([5]; 10 µM)
N=C(N)NCCCC(=O)NC1C(OCc2ccc(-c3ccccc3)cc2)OC(COCc2ccccc2)C(O)C1OCc1ccccc1 (stereo not shown) [compound 435],+ (“+” indicates greater than 50% inhibition at 10 μM),− (“−” indicates less than 50% inhibition at 10 μM),+ (“+” indicates greater than 50% inhibition at 10 μM),+ (“+” indicates greater than 50% inhibition at 10 μM),+ (“+” indicates greater than 50% inhibition at 10 μM),+ (“+” indicates greater than 50% inhibition at 10 μM),− (“−” indicates less than 50% inhibition at 10 μM),+ (“+” indicates greater than 50% inhibition at 10 μM),+ (“+” indicates greater than 50% inhibition at 10 μM),+ (“+” indicates greater than 50% inhibition at 10 μM),− (“−” indicates less than 50% inhibition at 10 μM),–,–,–
NCCC(=O)N[C@H]1C(OCc2ccc3ccccc3c2)O[C@H](COCc2ccc3ccccc3c2)[C@@H](O)[C@@H]1OCc1ccc(Cl)cc1 (stereo partly shown) [compound 436],− (“−” indicates less than 50% inhibition at 10 μM),− (“−” indicates less than 50% inhibition at 10 μM),+ (“+” indicates greater than 50% inhibition at 10 μM),+ (“+” indicates greater than 50% inhibition at 10 μM),+ (“+” indicates greater than 50% inhibition at 10 μM),− (“−” indicates less than 50% inhibition at 10 μM),− (“−” indicates less than 50% inhibition at 10 μM),+ (“+” indicates greater than 50% inhibition at 10 μM),− (“−” indicates less than 50% inhibition at 10 μM),+ (“+” indicates greater than 50% inhibition at 10 μM),− (“−” indicates less than 50% inhibition at 10 μM),–,–,–
NCCC(=O)N[C@H]1C(OCc2ccc3ccccc3c2)O[C@H](COCc2ccc3ccccc3c2)[C@@H](O)[C@@H]1OCc1ccc(Cl)cc1 (stereo partly shown) [compound 437],− (“−” indicates less than 50% inhibition at 10 μM),− (“−” indicates less than 50% inhibition at 10 μM),+ (“+” indicates greater than 50% inhibition at 10 μM),+ (“+” indicates greater than 50% inhibition at 10 μM),+ (“+” indicates greater than 50% inhibition at 10 μM),− (“−” indicates less than 50% inhibition at 10 μM),− (“−” indicates less than 50% inhibition at 10 μM),+ (“+” indicates greater than 50% inhibition at 10 μM),− (“−” indicates less than 50% inhibition at 10 μM),+ (“+” indicates greater than 50% inhibition at 10 μM),− (“−” indicates less than 50% inhibition at 10 μM),–,–,–
NCCC(=O)N[C@H]1C(OCc2ccc3ccccc3c2)O[C@H](COCc2ccccc2)[C@@H](O)[C@@H]1OCc1ccc(Cl)cc1 (stereo partly shown) [compound 438],− (“−” indicates less than 50% inhibition at 10 μM),− (“−” indicates less than 50% inhibition at 10 μM),–,–,–,− (“−” indicates less than 50% inhibition at 10 μM),− (“−” indicates less than 50% inhibition at 10 μM),+ (“+” indicates greater than 50% inhibition at 10 μM),− (“−” indicates less than 50% inhibition at 10 μM),− (“−” indicates less than 50% inhibition at 10 μM),− (“−” indicates less than 50% inhibition at 10 μM),+ (“+” indicates greater than 50% inhibition at 10 μM),− (“−” indicates less than 50% inhibition at 10 μM),− (“−” indicates less than 50% inhibition at 10 μM)
NCCC(=O)N[C@H]1C(OCc2ccc3ccccc3c2)O[C@H](COCc2ccccc2)[C@@H](O)[C@@H]1OCc1ccc(Cl)cc1 (stereo partly shown) [compound 439],− (“−” indicates less than 50% inhibition at 10 μM),− (“−” indicates less than 50% inhibition at 10 μM),–,–,–,− (“−” indicates less than 50% inhibition at 10 μM),− (“−” indicates less than 50% inhibition at 10 μM),+ (“+” indicates greater than 50% inhibition at 10 μM),− (“−” indicates less than 50% inhibition at 10 μM),− (“−” indicates less than 50% inhibition at 10 μM),− (“−” indicates less than 50% inhibition at 10 μM),− (“−” indicates less than 50% inhibition at 10 μM),+ (“+” indicates greater than 50% inhibition at 10 μM),+ (“+” indicates greater than 50% inhibition at 10 μM)
